This is an account of results in patent US10696693B2, “Fused imidazole derivatives as TGF-beta inhibitors” (Rigel Pharmaceuticals, Inc., priority 2014, dated 2020).

In one experiment the test system is TGF-β. Kind of experiment: AlphaScreen SureFire p-SMAD3 (Ser423/425) assay, TGF-β-stimulated cells. It counts as cell-based. To be noted: Mus musculus; p-SMAD3 (Ser423/425) AlphaScreen in cell lysate; MPC-11; TGF-β stimulation; read-out: TGF-β: inhibition of TGF-β signaling, TGF-β pSMAD (MPC-11). The procedure, abridged: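 The p-SMAD-3 (Ser423/425) SureFire assay measured phosphorylation of endogenous SMAD-3 in cell lysates. Cells were plated overnight in collagen-coated plates, exposed to three-fold serially diluted compounds for about 10 minutes, then stimulated with TGFβ. Lysates (5 μL) received acceptor bead mix for 2 hours, then donor beads for 1½ hours before AlphaScreen reading.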
(In general: In Alpha technology, singlet oxygen from a donor bead excites a nearby acceptor bead.)

A further experiment relates to GDF8. Kind of experiment: AlphaScreen SureFire p-SMAD3 (Ser423/425) assay, GDF8-stimulated cells. Particulars: Mus musculus, MPC-11; p-SMAD3 (Ser423/425) AlphaScreen in cell lysate; MPC11; GDF8 stimulation; read-out: GDF8: inhibition of GDF8 signaling, GDF pSMAD (MPC11). It counts as cell-based. The procedure, abridged:
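A SureFire AlphaScreen assay measured phosphorylation of endogenous SMAD-3 at Ser423/425 in cell lysates. Cells were treated with three-fold serially diluted compounds in DMSO for about 10 minutes, then stimulated with GDF8. After medium removal, cells were lysed in 1× Lysis Buffer (about 25 μL) with gentle shaking for 5-10 minutes.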

Turning to `Fc1ccc(-c2nc3occn3c2-c2ccc3nccnc3c2)cc1` [Compound 130, 6-(4-fluorophenyl)-5-(quinoxalin-6-yl)imidazo[2,1-b]oxazole], the IC50 with TGF-β and in the experiment with GDF8 was 100 to 1000 nM throughout.
Turning to `Fc1ccc(-c2cn3ccoc3n2)cc1F` [Compound 131, 6-(3,4-difluorophenyl)imidazo[2,1-b]oxazole], the IC50 in the experiment with TGF-β and in the experiment on GDF8 was > 1000 nM in each case.
Take `Fc1ccc(-c2nc3occn3c2I)cc1F` [Compound 132, 6-(3,4-difluorophenyl)-5-iodoimidazo[2,1-b]oxazole]: the IC50 in the experiment on TGF-β and with GDF8 was > 1000 nM each time.
Regarding `Fc1ccc(-c2nc3occn3c2-c2ccc3[nH]ncc3c2)cc1F` [Compound 133, 6-(3,4-difluorophenyl)-5-(1H-indazol-5-yl)imidazo[2,1-b]oxazole], the IC50 in the experiment on TGF-β and in the experiment on GDF8 was 50 to 100 nM each time.
For the compound `Fc1ccc(-c2nc3occn3c2-c2ccc3cn[nH]c3c2)cc1F` [Compound 134, 6-(3,4-difluorophenyl)-5-(1H-indazol-6-yl)imidazo[2,1-b]oxazole], the IC50 in the experiment on TGF-β is 100 to 1000 nM; in the experiment with GDF8 it was 50 to 100 nM.
For the compound `Fc1ccc(-c2nc3occn3c2-c2ccc3ncsc3c2)cc1F` [Compound 135, 5-(benzo[d]thiazol-6-yl)-6-(3,4-difluorophenyl)imidazo[2,1-b]oxazole], the IC50 was 50 to 100 nM in the experiment on TGF-β and < 50 nM with GDF8.
Turning to `Fc1ccc(-c2nc3occn3c2-c2ccc3nccnc3c2)cc1F` [Compound 136, 6-(3,4-difluorophenyl)-5-(quinoxalin-6-yl)imidazo[2,1-b]oxaole], the IC50 in the experiment on TGF-β and in the experiment on GDF8 was 100 to 1000 nM each time.
With `Fc1ccc(-c2nc3occn3c2-c2ccc3nccn3c2)cc1F` [Compound 137, 6-(3,4-difluorophenyl)-5-(imidazo[1,2-a]pyridin-6-yl)imidazo[2,1-b]oxazole], the IC50 is 50 to 100 nM with TGF-β and < 50 nM with GDF8.
The corresponding values for `Cc1cccc(-c2nc3occn3c2I)c1` [Compound 138, 5-iodo-6-(m-tolyl)imidazo[2,1-b]oxazole] are > 1000 nM and > 1000 nM.
The matching figures for `Cc1cccc(-c2nc3occn3c2-c2ccc3[nH]ncc3c2)c1` [Compound 139, 6-(m-tolyl)-5-(1H-indazol-5-yl)imidazo[2,1-b]oxazole]: < 50 nM and < 50 nM.
On to `Cc1cccc(-c2nc3occn3c2-c2ccc3cn[nH]c3c2)c1` [Compound 140, 6-(m-tolyl)-5-(1H-indazol-6-yl)imidazo[2,1-b]oxazole], for which the IC50 with TGF-β and with GDF8 was < 50 nM each time.
As for `Cc1cccc(-c2nc3occn3c2-c2ccc3ncsc3c2)c1` [Compound 141, 5-(benzo[d]thiazo-6-yl)-6-(m-tolyl)imidazo[2,1-b]oxazole], the IC50 with TGF-β and in the experiment with GDF8 was < 50 nM each time.
With `Cc1cccc(-c2nc3occn3c2-c2ccc3nccnc3c2)c1` [Compound 142, 5-(quinoxalin-6-yl)-6-(m-tolyl)imidazo[2,1-b]oxazole], the IC50 with TGF-β and in the experiment on GDF8 was < 50 nM in each case.
As to `Cc1cccc(-c2nc3occn3c2-c2ccc3nccn3c2)c1` [Compound 143, 6-(m-tolyl)-5-(imidazo[1,2-a]pyridin-6-yl)imidazo[2,1-b]oxazole], the IC50 in the experiment with TGF-β and in the experiment on GDF8 was < 50 nM throughout.
As to `Cc1cccc(-c2nc3occn3c2-c2ccc3ncccc3c2)c1` [Compound 144, 5-(quinolin-6-yl)-6-(m-tolyl)imidazo[2,1-b]oxazole], the values for the IC50 in the experiment with TGF-β and with GDF8 were 50 to 100 nM and < 50 nM, respectively.
The matching figures for `Fc1ccc(-c2nc3occn3c2-c2ccc3ncccc3c2)cc1F` [Compound 145, 5-(quinolin-6-yl)-6-(3,4-difluorophenyl)imidazo[2,1-b]oxazole]: 100 to 1000 nM and 50 to 100 nM.
Consider `Fc1ccc(-c2nc3occn3c2-c2ccc3ncccc3c2)cc1` [Compound 146, 5-(quinolin-6-yl)-6-(4-fluorophenyl)imidazo[2,1-b]oxazole], for which the IC50 in the experiment with TGF-β and in the experiment on GDF8 was 100 to 1000 nM in each case.
